Columns and labels:
[1] = system: DU145TXR; assay: Resensitization of DU145TXR to paclitaxel by 29 variants (MTT cell viability); format: cell-based, human; conditions: for Fold vs PTX ÷ 29: compared to parental compound 29
From the text: The Group 1 ChemGen/docking routine produced variants of P-gp inhibitor 29 resensitize a multidrug resistant, P-gp overexpressing prostate cancer cell line to paclitaxel. The mitochondrial reduction potential of cells is often used as an indicator for cell viability using MTT assays^40-42. Using these assays it was observed that the five Group 1 derivatives of 29 predicted through the ChemGen/docking routine and synthesized here, 216, 227, 231, 541 and 551, re-sensitized the P-gp overexpressing prostate cancer cell line, DU145TXR^33, to the chemotherapeutic, paclitaxel (FIG. 9, showing results of assays at concentrations of 3 μM, 5 μM, 7 μM, and 10 μM).
Cytotoxicity of the chemotherapeutic, paclitaxel (PTX) to P-gp overexpressing prostate cancer cells, DU145TXR, was determined in the absence and presence of the ChemGen designed 29-variants, 216, 227, 231, 541 and 551. For each experimental compound IC50 values of PTX alone or in the presence of inhibitors, fold improvement of PTX sensitivity in the presence of inhibitor, and fold improvement of PTX sensitivity by variants compared to parental compound 29 are given.

[2] = biological target: T1, Cysteineless Mouse MDR3 P-glycoprotein (Mus musculus, UniProt P21447, C1070A/C1121A/C1223A/C133A/C427A/C638A/C669A/C713A/C952A); assay: ATP hydrolysis by purified P-glycoprotein, basal and verapamil-stimulated; format: biochemical; conditions: ± standard deviation; for Stimulated ATPase (% of DMSO): in the presence of verapamil; for Basal ATPase (% of DMSO): without added transport substrate
T1 construct: made in house; host or cells: Pichia pastoris
From the text: The efficacy of molecules identified using in silico methods to function as potential inhibitors of P-glycoprotein was initially tested with regard to their capability to inhibit ATP hydrolysis by purified P-glycoprotein. For this purpose, a well-established activity assay for ATP hydrolyzing enzymes that uses the oxidation of NADH to NAD+ through coupling the reactions of pyruvate kinase and lactate dehydrogenase to the hydrolysis of ATP was adapted to medium throughput conditions on 96 well plates. […] In this set-up, the effects of potential small molecule inhibitors on the ATP hydrolysis activity of P-glycoprotein were tested in duplicate or triplicate and were repeated at least two times using different enzyme preparations.
The P-glycoprotein used in these assays was a close relative of the human P-glycoprotein that is found in mice. A mutant version of the mouse P-glycoprotein where all intrinsic cysteine amino acids had been replaced by alanine residues was recombinantly expressed in the yeast Pichia pastoris and used for these initial tests. […] Prior to testing the ATP-hydrolysis activity, P-glycoprotein was incubated with phosphatidyl choline for stabilization of the enzyme during the assay.
Different concentrations of the to-be-tested small molecules were added and pre-incubated at 37° C. The ATP hydrolysis reaction was then started by adding equal volume of double concentrated ATPase cocktail. The final ATP concentration in the reaction was 2 mM. The reaction was allowed to proceed for 20 minutes, the rate of ATP hydrolysis was calculated using the molar extinction coefficient of NADH, and the one-to-one relationship of ATP hydrolyzed and NADH oxidized.
Evaluation of mode of inhibition of P-glycoprotein by Group 1 and Group 2 variants of compound 29. To assess the mode of inhibition of P-gp by the novel variants of P-gp inhibitor 29, ATP hydrolysis by P-gp was evaluated in the presence or absence of the variants. […] Murine P-gp (MDR3) expressed in Pichia pastoris that had all naturally occurring cysteines replaced with alanine, was used^45, 46. It is widely assumed that the ATP hydrolytic rate of P-gp is stimulated in the presence of transport substrates when compared to ATP hydrolysis in the absence of transport substrates. Assays comparing these rates can therefore be useful not only in identifying inhibitors of P-gp catalyzed ATP hydrolysis, but also to potentially infer whether a compound might be a transport substrate if basal ATPase rates are stimulated by the addition of a compound.

[3] = biological target: T1, Cysteineless Mouse MDR3 P-glycoprotein; assay: SL-ATP binding to P-gp by ESR spectroscopy; conditions: SL-ATP titration in presence of compound
From the text: Determination of the possible mode of ATP hydrolysis inhibition by the identified P-glycoprotein inhibitors. The mode of hydrolysis of ATP by P-glycoprotein was investigated by measuring the maximal binding stoichiometry and binding affinity of an analog of ATP, SL-ATP, and by Electron Spin Resonance (ESR) spectroscopy, similar to in both the presence and absence of the identified inhibitors.
The high-field signal of the freely mobile, unbound SL-ATP is compared and is used to calculate the amount of ATP-analog bound to P-glycoprotein. Binding of SL-ATP in the absence of any P-glycoprotein inhibitor saturated at about 2 mol of SL-nucleotide bounds per mol of P-glycoprotein.
FIGS. 2A-2D are plots showing the effects of P-glycoprotein ATP hydrolysis inhibitors on nucleotide binding. Between 30 and 50 microM Pgp were incubated with 50 microM inhibitor compound. Increasing amounts of SL-ATP were added. The ESR signal of the free SL-ATP in the presence of P-glycoprotein and inhibitor was compared to that in the absence of P-glycoprotein. The graphs represent at least 3 individual studies each using 3 to 5 different P-glycoprotein preparations.

[4] = biological target: Normal Human MDR1 P-glycoprotein (Homo sapiens, UniProt P08183); assay: ATP hydrolysis by human P-gp assembled into membrane nanodiscs; format: biochemical; conditions: human MDR1 P-gp in nanodiscs
From the text: To assess whether the observed discrepancies of compounds stimulating basal P-gp ATPase activity but not being transport substrates of the human pump in the cell culture assessments were due to the fact that these biochemical assays used a cysteineless variant of the mouse MDR3 P-glycoprotein, the experiments were repeated using normal human MDR1 P-gp. In order to stabilize the human protein for the activity assays, the protein was assembled into membrane nanodiscs as described herein.

[5] = system: DU145TXR; assay: Intrinsic toxicity, MTT survival; format: cell-based, human
Procedure: (§1) Percent survival determined by MTT assay calculated relative to cells treated with equal volume DMSO vehicle and represent the mean±SEM from 2-4 separate studies, each study performed in triplicate wells.
(§2) The intrinsic in vitro toxicities of identified compounds were evaluated to determine their potential therapeutic window. This was assessed in a noncancerous cell line (HFL1) and the human prostate cancer cell lines DU145 and the MDR sub-line DU145TxR.

[6] = system: P-gp overexpressing DU145TXR cells; assay: Calcein AM accumulation assay; format: cell-based, human
Procedure: Accumulation and cellular retention of calcein AM in P-gp overexpressing prostate cancer cells upon incubation with Group 1 SMU-29 variants. Calcein AM accumulation assays have been used by us previously to evaluate P-gp-substrate accumulation in real time in the presence or absence of P-gp inhibitors^28. For these assays, P-gp overexpressing DU145TXR cells were incubated with the respective inhibitors in the presence of the P-gp substrate, calcein AM. Inhibition of P-gp leads to cellular accumulation of calcein AM and to cleavage of its acetoxymethyl ester groups, resulting in the generation of the highly fluorescent compound, calcein. The anionic calcein is not a substrate of P-gp and remains in the cells. In these assays, the relative fluorescence of cellular calcein was measured over time and the results of these assays are shown in FIG. 10A.
The inventors determined if preferential partitioning of variants in the hydrophobic part of the cell membrane may keep them more distant from the putative allosteric site on P-gp which is located adjacent to the membrane in the cytoplasm, therefore potentially slowing the inhibitory effect of the compounds.

[7] = system: DU145TXR; assay: Potentiation of 500 nM paclitaxel cytotoxicity (MTT); format: cell-based, human; conditions: 50 nM-25 μM inhibitor with 500 nM paclitaxel
Procedure: FIGS. 4A and 4B show the in silico identified P-gp inhibitors potentiate the cytotoxic effects of paclitaxel in the MDR human prostate cancer cell line DU145TxR. […] Values represent the mean±SEM of at least two separate experiments performed in triplicate.
A range of experimental inhibitor concentrations was added in the presence of 500 nM paclitaxel and the cell viability was assessed using the MTT assay.
In order to compare the efficacy of inhibitors, the potentiation concentration of inhibitor resulting in 50% reduction in cell viability, PC50, in the presence of 500 nM paclitaxel was calculated from the data in FIG. 4A.

[8] = system: DU145TXR; assay: Dose dependent sensitization of MDR cell line to paclitaxel (MTT); format: cell-based, human; conditions: 5 μM and 10 μM compound
Procedure: FIGS. 6A to 6C show the dose dependent sensitization of MDR prostate cancer cell line DU145TxR. […] For reference, the DU145TxR (closed circle) and DU145 (open circle) incubated with paclitaxel only are also included. Values are mean±SEM from at least 2 separate experiments performed in triplicate wells. The data were normalized to the intrinsic toxicities as determined in studies from FIGS. 5A to 5C of each of the compounds for each of the corresponding concentrations.
Dose Dependent Sensitization of MDR Prostate Cancer Cell Line: To determine the degree to which the MDR prostate cancer cell line DU145TxR could be sensitized to paclitaxel the inventors determined cell survival at increasing concentrations of paclitaxel in the presence of three concentrations of P-gp inhibitors. FIGS. 6A, 6B and 6C show the survival of DU145TxR at increasing concentration of paclitaxel in the presence of 5 μM, 10 μM and 25 μM of the experimental compounds, respectively. The open circles represent the parental DU145 cell line in the presence of paclitaxel without addition of any inhibitor compound. The closed circles represent the survival of the multidrug resistant DU145TxR in the presence of paclitaxel alone. […] At that concentration over 10-fold increase in paclitaxel sensitivity in DU145TxR is observed compared to DU145TxR without P-gp inhibitors. Doubling the concentration of the compounds to 10 μM approximately doubled the DU145TxR sensitivity to paclitaxel.

[9] = biological target: T1, Cysteineless Mouse MDR3 P-glycoprotein; conditions: ESR data of Brewer et al. (2014); cited from earlier work
[10] = system: DU145; assay: Intrinsic toxicity, MTT survival; format: cell-based; conditions: Homo sapiens, DU-145, 48 hours, ± standard error
Procedure: as §1, §2

T1 sequence (P21447 whole entry C133A/C427A/C638A/C669A/C713A/C952A/C1070A/C1121A/C1223A): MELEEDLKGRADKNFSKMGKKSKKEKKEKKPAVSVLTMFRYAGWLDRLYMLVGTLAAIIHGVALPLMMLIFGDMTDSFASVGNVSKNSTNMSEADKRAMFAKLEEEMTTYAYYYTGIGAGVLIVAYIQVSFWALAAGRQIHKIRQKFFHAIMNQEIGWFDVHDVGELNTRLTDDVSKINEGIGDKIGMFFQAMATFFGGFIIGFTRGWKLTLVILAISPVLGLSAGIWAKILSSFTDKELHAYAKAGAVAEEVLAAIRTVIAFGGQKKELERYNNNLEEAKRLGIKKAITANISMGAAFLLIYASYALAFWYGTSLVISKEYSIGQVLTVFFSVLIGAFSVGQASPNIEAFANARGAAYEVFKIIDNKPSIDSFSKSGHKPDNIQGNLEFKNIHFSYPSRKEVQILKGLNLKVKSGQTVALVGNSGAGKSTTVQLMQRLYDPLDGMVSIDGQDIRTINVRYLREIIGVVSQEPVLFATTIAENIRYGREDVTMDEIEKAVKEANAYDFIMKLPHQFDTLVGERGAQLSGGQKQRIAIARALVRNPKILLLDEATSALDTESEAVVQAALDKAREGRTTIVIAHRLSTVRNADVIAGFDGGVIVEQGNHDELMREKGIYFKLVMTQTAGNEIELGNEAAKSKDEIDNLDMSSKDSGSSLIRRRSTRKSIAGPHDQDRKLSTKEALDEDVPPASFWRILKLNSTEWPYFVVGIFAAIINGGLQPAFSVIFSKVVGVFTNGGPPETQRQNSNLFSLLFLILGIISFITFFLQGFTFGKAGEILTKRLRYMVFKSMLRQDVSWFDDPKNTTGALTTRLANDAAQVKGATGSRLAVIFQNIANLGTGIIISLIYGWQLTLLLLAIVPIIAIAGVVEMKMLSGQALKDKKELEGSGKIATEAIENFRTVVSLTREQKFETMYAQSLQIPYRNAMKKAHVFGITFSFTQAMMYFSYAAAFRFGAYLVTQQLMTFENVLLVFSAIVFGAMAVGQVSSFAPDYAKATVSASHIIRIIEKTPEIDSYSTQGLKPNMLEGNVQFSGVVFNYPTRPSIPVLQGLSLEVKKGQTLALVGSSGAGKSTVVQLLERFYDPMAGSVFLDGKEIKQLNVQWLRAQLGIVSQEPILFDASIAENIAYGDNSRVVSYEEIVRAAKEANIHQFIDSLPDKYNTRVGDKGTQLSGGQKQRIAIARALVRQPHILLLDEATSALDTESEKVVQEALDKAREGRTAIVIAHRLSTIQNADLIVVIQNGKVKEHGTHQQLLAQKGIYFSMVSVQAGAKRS
Chain of Normal Human MDR1 P-glycoprotein (P08183 whole entry): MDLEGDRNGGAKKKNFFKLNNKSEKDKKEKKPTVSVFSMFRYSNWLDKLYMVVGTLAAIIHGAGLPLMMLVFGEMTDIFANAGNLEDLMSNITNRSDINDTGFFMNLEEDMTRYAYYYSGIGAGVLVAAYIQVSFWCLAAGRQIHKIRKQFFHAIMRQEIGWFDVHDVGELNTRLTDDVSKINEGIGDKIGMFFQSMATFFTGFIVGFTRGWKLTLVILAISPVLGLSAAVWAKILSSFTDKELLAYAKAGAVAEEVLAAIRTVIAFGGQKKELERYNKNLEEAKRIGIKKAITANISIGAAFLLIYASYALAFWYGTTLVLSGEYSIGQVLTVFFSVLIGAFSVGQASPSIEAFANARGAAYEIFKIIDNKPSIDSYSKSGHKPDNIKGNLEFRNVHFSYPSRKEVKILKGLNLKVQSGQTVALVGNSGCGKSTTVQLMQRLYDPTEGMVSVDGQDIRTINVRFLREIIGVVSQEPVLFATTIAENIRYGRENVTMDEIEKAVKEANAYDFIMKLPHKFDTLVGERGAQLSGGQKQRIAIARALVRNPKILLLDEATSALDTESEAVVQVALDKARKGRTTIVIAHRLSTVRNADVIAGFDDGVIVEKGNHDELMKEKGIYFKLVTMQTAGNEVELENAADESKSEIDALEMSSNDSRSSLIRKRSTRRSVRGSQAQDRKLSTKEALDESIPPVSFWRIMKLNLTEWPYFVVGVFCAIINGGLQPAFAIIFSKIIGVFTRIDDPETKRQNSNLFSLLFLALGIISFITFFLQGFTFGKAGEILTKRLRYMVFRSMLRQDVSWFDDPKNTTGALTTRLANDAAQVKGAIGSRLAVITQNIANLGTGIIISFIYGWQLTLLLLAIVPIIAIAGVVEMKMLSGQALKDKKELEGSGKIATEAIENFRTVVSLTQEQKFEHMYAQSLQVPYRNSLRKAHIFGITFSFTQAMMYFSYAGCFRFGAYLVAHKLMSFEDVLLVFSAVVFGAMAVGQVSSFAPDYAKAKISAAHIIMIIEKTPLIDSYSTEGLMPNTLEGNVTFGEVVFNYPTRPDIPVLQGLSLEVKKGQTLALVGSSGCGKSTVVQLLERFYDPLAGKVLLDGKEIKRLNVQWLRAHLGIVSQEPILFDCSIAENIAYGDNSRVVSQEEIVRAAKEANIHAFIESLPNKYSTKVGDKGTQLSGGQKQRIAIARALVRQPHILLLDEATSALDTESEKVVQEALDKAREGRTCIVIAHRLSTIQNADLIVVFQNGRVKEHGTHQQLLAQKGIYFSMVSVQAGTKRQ

Compound	Fold vs PTX ([1]; 3 μM inhibitor, fold improvement of PTX sensitivity vs PTX alone)	Fold vs PTX ÷ 29 ([1]; 5 μM inhibitor)	Fold vs PTX ([1]; 5 μM inhibitor, vs PTX alone)	Fold vs PTX ÷ 29 ([1]; 7 μM inhibitor)	Fold vs PTX ([1]; 7 μM inhibitor, vs PTX alone)	Fold vs PTX ÷ 29 ([1]; 10 μM inhibitor)	Fold vs PTX ([1]; 10 μM inhibitor, vs PTX alone)	Stimulated ATPase (% of DMSO) [2]	Basal ATPase (% of DMSO) [2]	Maximum ATP binding mol SL-ANP bound/mol P-gp [3]	Basal ATPase (% of DMSO) [4]	Stimulated ATPase (% of DMSO) [4]	Toxicity in cell viability assays ([5]; in the absence of chemotherapeutic)	Cellular calcein accumulation relative to parental compound 29 ([6]; after 6-hour pre-incubation)	Cellular calcein accumulation relative to parental compound 29 ([6]; no preincubation)	Effect on paclitaxel sensitivity [7]	Effect on cell viability with paclitaxel [8]	Effect on SL-ANP binding [9]	IC50 [10]	IC50 ([5]; Homo sapiens, intrinsic toxicity, 48 hours, MTT, ± standard error)
Cc1cc(C)c(-c2cc(NC(=O)CSc3nnc4c(n3)[nH]c3ccccc34)n(-c3ccccc3)n2)cc1C [SMU29-541, 2-((5H-[1,2,4]triazino[5,6-b]indol-3-yl)thio)-N-(1-phenyl-3-(2,4,5-trimethylphenyl)-1H-pyrazol-5-yl)acetamide]	5 Fold	9.2 Fold	101 Fold	3.4 Fold	125 Fold	3.4 Fold	125 Fold	68 ± 7 % of DMSO	101 ± 12 % of DMSO	1.8 ± 0.1 mol SL-ANP bound/mol P-gp	87 ± 9 % of DMSO	66 ± 6 % of DMSO	some toxicity	exceeded 29 significantly	performed relatively equally to 29					
Cc1cc(C)c(-c2cc(NC(=O)CSc3cccc(NC(=O)c4cncc(Br)c4)c3)n(-c3ccccc3)n2)cc1C [SMU29-551, 5-bromo-N-(3-((2-oxo-2-((1-phenyl-3-(2,4,5-trimethylphenyl)-1H-pyrazol-5-yl)amino)ethyl)thio)phenyl)nicotinamide]		9.7 Fold	106 Fold	6.6 Fold	236 Fold	3.5 Fold	353 Fold	62 ± 5 % of DMSO	150 ± 6 % of DMSO	1.7 ± 0.1 mol SL-ANP bound/mol P-gp	72 ± 9 % of DMSO	27 ± 1 % of DMSO		equivalent to 29	marginally higher calcein accumulation than parental compound 29					
COC(=O)c1ccc(C(c2c(O)oc3ccccc3c2=O)c2c(O)oc3ccccc3c2=O)cc1 [SMU-19, methyl 4-[bis(2-hydroxy-4-oxochromen-3-yl)methyl]benzoate]																no effect	no effect on cell viability	reduce the number of binding sites		
COc1ccc(CCN(C)CCCC(C#N)(c2ccc(OC)c(OC)c2)C(C)C)cc1OC (stereo not drawn) [Verapamil, verapamil, reference compound]																			74.5 ± 0.04 µM	147.5 ± 0.1 µM

— patent US20220175777A1, “Inhibitors of Multidrug Resistance Transporter P-Glycoprotein” (Southern Methodist University, priority 2014, published 2022)
